Tests used:
Smad4 = experiment: Immunofluorescence staining of Smad4 nuclear translocation; format: cell-based, rat; settings: NRK52E cells, GQ-5 2.5 μM pre-treated 1 h, TGF-β1 10 ng/ml 2 h
Procedure: (§1) NRK52E cells were cultured in DMEM-Ham's medium supplemented with 10% fetal bovine serum. The cells reached at approximately 50% confluence were used for in vitro experiments. Cells were serum-starved for 12 h, and randomized into 3 groups: (1) Controls; (2) TGF-β1 only; (3) TGF-β1+GQ-5.
(§2) (2) TGF-β1 only: pre-treated with DMSO for 1 h, followed with TGF-β1 (10 ng/ml) for 2 h
(§3) (3) TGF-β1+GQ-5: pre-treated with GQ-5 (2.5 μM) for 1 h, followed with TGF-β1 (10 ng/ml) for 2 h
(§4) GQ-5 was dissolved in DMSO. Cells were treated as described Immunofluorescence staining was performed to examine the nuclear translocation of Smad2, Smad3, and Smad4.

α-SMA = experiment: Western blot of TGF-β1-induced α-SMA protein in vitro; format: cell-based, rat; settings: NRK 52E and NRK 49F cells, GQ-5 0.1-2.5 μM pre-treated 1 h, TGF-β1 10 ng/ml 48 h
Procedure: as §1, with “NRK52E and NRK49F” for “NRK52E”, “6” for “3”, “(2) GQ-5 only; (3)” for “(2)”, “(4) TGF-β1+GQ-5 0.1 μM; (5) TGF-β1+GQ-5 0.5 μM; (6) TGF-β1+GQ-5 2.5 μM” for “(3) TGF-β1+GQ-5.”
(2) GQ-5 only: pre-treated with GQ-5 (2.5 μM) for 1 h, followed with DMEM for 48 h
(3) TGF-β1 only: pre-treated with DMSO for 1 h, followed with TGF-β1 (10 ng/ml) for 48 h
(4) TGF-β1+GQ-5 0.1 μM: pre-treated with GQ-5 (0.1 μM) for 1 h, followed with TGF-β1 (10 ng/ml) for 48 h
(5) TGF-β1+GQ-5 0.5 μM: pre-treated with GQ-5 (0.5 μM) for 1 h, followed with TGF-β1 (10 ng/ml) for 48 h
(6) TGF-β1+GQ-5 2.5 μM: pre-treated with GQ-5 (2.5 μM) for 1 h, followed with TGF-β1 (10 ng/ml) for 48 h
GQ-5 was dissolved in DMSO. Cells were treated as described. Cells lysates were immunebloted with antibodies against α-SMA, collagen I and fibronectin.

fibronectin [1] = experiment: Real-time PCR of TGF-β1-induced fibronectin mRNA in vitro; format: cell-based, rat; settings: NRK 52E and NRK 49F cells, GQ-5 0.1-2.5 μM pre-treated 1 h, TGF-β1 10 ng/ml 36 h
Procedure: as §1, with “NRK52E and NRK49F” for “NRK52E”, “6” for “3”, “(2) GQ-5 only; (3)” for “(2)”, “(4) TGF-β1+GQ-5 0.1 μM; (5) TGF-β1+GQ-5 0.5 μM; (6) TGF-β1+GQ-5 2.5 μM” for “(3) TGF-β1+GQ-5.”
(§5) (2) GQ-5 only: pre-treated with GQ-5 (2.5 μM) for 1 h, followed with DMEM for 36 h
(§6) (3) TGF-β1 only: pre-treated with DMSO for 1 h, followed with TGF-β1 (10 ng/ml) for 36 h
(§7) (4) TGF-β1+GQ-5 0.1 μM: pre-treated with GQ-5 (0.1 μM) for 1 h, followed with TGF-β1 (10 ng/ml) for 36 h
(§8) (5) TGF-β1+GQ-5 0.5 μM: pre-treated with GQ-5 (0.5 μM) for 1 h, followed with TGF-β1 (10 ng/ml) for 36 h
(§9) (6) TGF-β1+GQ-5 2.5 μM: pre-treated with GQ-5 (2.5 μM) for 1 h, followed with TGF-β1 (10 ng/ml) for 36 h
(§10) GQ-5 was dissolved in DMSO. Cells were treated as described. Cells were collected for mRNA extraction. Real-rime PCR was performed to examine the mRNA expression of α-SMA, collagen I and fibronectin.

Smad2 = experiment: Immunofluorescence staining of Smad2 nuclear translocation; format: cell-based, rat; settings: NRK52E cells, GQ-5 2.5 μM pre-treated 1 h, TGF-β1 10 ng/ml 2 h
Procedure: as §1, §2, §3, §4

p38 = experiment: Western blot of p38 phosphorylation in UUO kidneys; format: in vivo, rat; settings: UUO rats, GQ-5 40 mg/kg daily i.p. right after UUO, sacrificed day 14
Procedure: (§11) Male Sprague-Dawley rats with body weight 200 to 250 g were randomized into 3 groups (n=6 in each group): (1) sham operated rats; (2) UUO rats; (3) UUO+GQ-5 rats.
(§12) GQ-5 was dissolved in 5% propylene glycol.
(§13) (3) UUO+GQ-5 rats: daily intraperitoneal injection of GQ-5 (40 mg/kg body weight) right after UUO;
(§14) UUO was performed using an established protocol as described. GQ-5 was dissolved in 5% propylene glycol. Rats were administrated with GQ-5 as described before. All the rats were sacrificed 14 days after UUO. Western blot analyses were performed to examine the Smad4, Smad7 expression and p38, PI3K, ERK phosphorylation.

[2] = molecular target: interaction of Smad3 with TβRI (Rattus norvegicus, UniProt P84025); experiment: Immunoprecipitation of Smad3 with TβRI in UUO kidneys; format: in vivo; set-up: from tissue; host or cells: kidney of UUO Sprague-Dawley rats; settings: GQ-5 40 mg/kg daily i.p. right after UUO, sacrificed day 14
Procedure: as §11, §12, §13
as §14, with “Immunoprecipitation” for “Western blot”, “interaction among TβRI, TβRII, Smad3” for “Smad4, Smad7 expression”, “Smad2.” for “p38, PI3K, ERK phosphorylation.”

ERK = experiment: Western blot of ERK phosphorylation in UUO kidneys; format: in vivo, rat; settings: UUO rats, GQ-5 40 mg/kg daily i.p. right after UUO, sacrificed day 14
Procedure: as §11, §12, §13, §14

UUO rats = experiment: Renal interstitial fibrosis after UUO (HE and Masson trichrome staining); format: in vivo, rat; settings: GQ-5 40 mg/kg daily i.p. initiating right after or 7 days after operation, sacrificed day 14
Procedure: (§15) Male Sprague-Dawley rats were randomized into 4 groups (n=6 in each group): (1) sham operated rats; (2) UUO rats; (3) UUO+GQ-5 d1 rats; (4) UUO+GQ-5 d7 rats.
as §12
(§16) (3) UUO+GQ-5 d1 rats: daily intraperitoneal injection of GQ-5 (40 mg/kg body weight) right after UUO;
(§17) (4) UUO+GQ-5 d7 rats: daily intraperitoneal injection of GQ-5 (40 mg/kg body weight) 7 days after UUO.
(§18) UUO was performed using an established protocol as described. GQ-5 was dissolved in 5% propylene glycol. Rats were administrated with GQ-5 as described before. All the rats were sacrificed 14 days after UUO. HE staining, Masson trichrome staining were performed to examine the renal tissue injury, and Real-time PCR analyses, immunohistochemical staining, and Western blot analyses were performed to examine α-SMA, collagen I and fibronectin expression in kidney tissue

fibronectin [3] = experiment: Fibronectin expression in UUO kidney tissue (real-time PCR, immunohistochemistry, Western blot); format: in vivo, rat; settings: UUO rats, GQ-5 40 mg/kg daily i.p., sacrificed day 14
Procedure: as §15, §12, §16, §17, §18

[4] = molecular target: interaction of Smad2 with TβRI (Rattus norvegicus, UniProt O70436); experiment: Immunoprecipitation of Smad2 with TβRI in UUO kidneys; format: in vivo; settings: GQ-5 40 mg/kg daily i.p. right after UUO, sacrificed day 14
Procedure: as §11, §12, §13
as §14, with “Immunoprecipitation” for “Western blot”, “interaction among TβRI, TβRII, Smad3” for “Smad4, Smad7 expression”, “Smad2.” for “p38, PI3K, ERK phosphorylation.”

collagen I = experiment: Real-time PCR of TGF-β1-induced collagen I mRNA in vitro; format: cell-based, rat; settings: NRK 52E and NRK 49F cells, GQ-5 0.1-2.5 μM pre-treated 1 h, TGF-β1 10 ng/ml 36 h
Procedure: as §1, with “NRK52E and NRK49F” for “NRK52E”, “6” for “3”, “(2) GQ-5 only; (3)” for “(2)”, “(4) TGF-β1+GQ-5 0.1 μM; (5) TGF-β1+GQ-5 0.5 μM; (6) TGF-β1+GQ-5 2.5 μM” for “(3) TGF-β1+GQ-5.”
as §5, §6, §7, §8, §9, §10

Chain of interaction of Smad2 with TβRI (O70436 whole entry): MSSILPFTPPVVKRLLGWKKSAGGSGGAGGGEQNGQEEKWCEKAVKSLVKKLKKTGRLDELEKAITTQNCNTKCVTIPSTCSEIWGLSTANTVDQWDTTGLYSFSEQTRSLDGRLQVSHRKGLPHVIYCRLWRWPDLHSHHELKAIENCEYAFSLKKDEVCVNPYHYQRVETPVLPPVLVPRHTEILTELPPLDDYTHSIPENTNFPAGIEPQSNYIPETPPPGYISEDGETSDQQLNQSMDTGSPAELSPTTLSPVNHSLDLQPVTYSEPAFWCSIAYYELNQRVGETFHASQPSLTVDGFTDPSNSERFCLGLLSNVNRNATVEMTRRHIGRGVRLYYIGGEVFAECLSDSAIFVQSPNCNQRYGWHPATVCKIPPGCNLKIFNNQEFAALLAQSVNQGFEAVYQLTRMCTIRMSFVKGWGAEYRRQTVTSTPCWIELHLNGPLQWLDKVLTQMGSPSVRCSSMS
Chain of interaction of Smad3 with TβRI (P84025 whole entry): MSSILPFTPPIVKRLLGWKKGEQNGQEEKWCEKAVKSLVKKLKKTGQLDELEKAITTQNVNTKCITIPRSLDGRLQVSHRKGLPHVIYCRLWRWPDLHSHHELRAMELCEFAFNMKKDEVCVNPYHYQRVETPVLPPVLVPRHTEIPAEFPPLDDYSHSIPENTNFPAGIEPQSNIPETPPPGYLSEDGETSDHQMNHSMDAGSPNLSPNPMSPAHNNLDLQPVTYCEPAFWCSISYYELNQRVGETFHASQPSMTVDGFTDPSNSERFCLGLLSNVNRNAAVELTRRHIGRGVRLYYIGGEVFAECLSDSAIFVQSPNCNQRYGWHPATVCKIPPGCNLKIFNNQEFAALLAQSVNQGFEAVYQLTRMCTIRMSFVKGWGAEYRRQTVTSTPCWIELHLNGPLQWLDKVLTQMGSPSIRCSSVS

CCCCCC/C=C\CCCCCCCc1cccc(O)c1O [GQ-5, 3-[(Z)-pentadec-8-enyl]catechol]
nuclear translocation of Smad4 (Smad4): also reduced
TGF-β1-induced protein expression of α-SMA (α-SMA): significantly inhibited
TGF-β1-induced mRNA expression of fibronectin (fibronectin [1]): significantly inhibited
nuclear translocation of Smad2 (Smad2): also reduced
phosphorylation of p38 (p38): did not affect
interaction of Smad3 with TβRI [2]: significantly blocked
phosphorylation of ERK (ERK): did not affect
inflammatory cell infiltration (UUO rats): significantly reduced
interstitial fibrosis score (UUO rats): significantly reduced
up-regulation of fibronectin at both mRNA and protein level (fibronectin [3]): significantly inhibited
interaction of Smad2 with TβRI [4]: did not affect
TGF-β1-induced mRNA expression of collagen I (collagen I): significantly inhibited
